This is an account of results in ChEMBL document CHEMBL5230085, “Design, synthesis, and biological characterization of a new class of symmetrical polyamine-based small molecule CXCR4 antagonists” (Eur J Med Chem, 2020).

Assay [1] concerns the target T1, C-X-C chemokine receptor type 4 (Homo sapiens, UniProt P61073). The experiment in a line: Binding affinity to CXCR4 (unknown origin) expressed in CHO cells incubated for 40 mins by competitive binding assay method. The assay is classed as cell-based.
Assay [2] has as its target T1, C-X-C chemokine receptor type 4. As to the kind of experiment: Binding affinity to CXCR4 (unknown origin). The settings on record: filed as antagonist.
Assay [3] concerns C-X-C chemokine receptor type 4 (Homo sapiens), P61073 [D193A]. As to the kind of experiment: Binding affinity to CXCR4 D193A mutant (unknown origin) assessed as reduction in potency. Particulars: filed as antagonist. Also noted: scale not given: the % may be the effect or the level left.
The test system of the next assay is CEM-GFP. As to the kind of experiment: Cytotoxicity against human CEM-GFP cells assessed as cell viability at 10 uM incubated for 5 days by Celltiter-blue assay method. The assay is classed as functional, cell-based. The settings on record: time 5.0 day. For orientation: The colour change of resazurin is a common sign of viable cells or microbes.
Assay [4] relates to C-X-C chemokine receptor type 4 (Homo sapiens), P61073 [R30A]. The experiment in a line: Binding affinity to N-terminus CXCR4 R30A mutant (unknown origin).
Assay [5] deals with C-X-C chemokine receptor type 4 (Homo sapiens), P61073 [H113A]. The experiment in a line: Binding affinity to N-terminus CXCR4 H113A mutant (unknown origin).
For assay [6], the system named is C-X-C chemokine receptor type 4 (Homo sapiens), P61073 [W195A]. The experiment in a line: Binding affinity to CXCR4 W195A mutant (unknown origin) assessed as reduction in potency. The arrangement: scale not given: the % may be the effect or the level left. The settings on record: filed as antagonist.
In assay [7] the target is T1, C-X-C chemokine receptor type 4. The experiment in a line: Antagonist activity at CXCR4 receptor in SDF-1alpha-stimulated human SUP-T1 cells incubated for 30 mins by calcium mobilization assay. The class given is cell-based.
Assay [8] concerns C-X-C chemokine receptor type 4 (Homo sapiens), P61073 [E288D]. As to the kind of experiment: Binding affinity to CXCR4 E288D mutant (unknown origin) by competitive binding assay method. The settings on record: filed as antagonist.
Assay [9] has the same test system. As to the kind of experiment: Binding affinity to CXCR4 E288D mutant (unknown origin) by 12G5 competitive binding assay.
The test system of assay [10] is C-X-C chemokine receptor type 4 (Homo sapiens), P61073 [D262A]. The experiment in a line: Binding affinity to N-terminus CXCR4 D262A mutant (unknown origin).
Assay [11] is described as follows: Antiviral activity against HIV1 NL4-3 infected in human CEM-GFP cells assessed as inhibition in viral growth measured after 5 days by 96-well plate assay method. The class given is functional, cell-based. The settings on record: NL4-3, CEM-GFP, 120 h.

The source made the active and inactive calls. The calls are words filed in the database; no cut-off is given here. Some results are limits rather than exact numbers.

T1 sequence (P61073 whole entry): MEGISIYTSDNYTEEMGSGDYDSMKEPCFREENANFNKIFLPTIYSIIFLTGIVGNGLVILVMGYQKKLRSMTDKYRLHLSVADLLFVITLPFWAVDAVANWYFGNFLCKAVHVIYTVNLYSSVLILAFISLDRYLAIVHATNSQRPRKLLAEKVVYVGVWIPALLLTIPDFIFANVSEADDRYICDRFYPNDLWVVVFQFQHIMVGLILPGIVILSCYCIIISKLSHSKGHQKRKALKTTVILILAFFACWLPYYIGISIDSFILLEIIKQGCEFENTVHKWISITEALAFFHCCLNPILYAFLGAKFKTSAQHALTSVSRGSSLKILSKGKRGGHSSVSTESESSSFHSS
C-X-C chemokine receptor type 4 (Homo sapiens), P61073 [E288D], sequence (P61073 whole entry E288D): as the sequence (P61073 whole entry) above, with E288D counted along it
C-X-C chemokine receptor type 4 (Homo sapiens), P61073 [D193A], sequence (P61073 whole entry D193A): as the sequence (P61073 whole entry) above, with D193A counted along it
C-X-C chemokine receptor type 4 (Homo sapiens), P61073 [D262A], sequence (P61073 whole entry D262A): as the sequence (P61073 whole entry) above, with D262A counted along it
C-X-C chemokine receptor type 4 (Homo sapiens), P61073 [R30A], sequence (P61073 whole entry R30A): as the sequence (P61073 whole entry) above, with R30A counted along it
C-X-C chemokine receptor type 4 (Homo sapiens), P61073 [H113A], sequence (P61073 whole entry H113A): as the sequence (P61073 whole entry) above, with H113A counted along it
C-X-C chemokine receptor type 4 (Homo sapiens), P61073 [W195A], sequence (P61073 whole entry W195A): as the sequence (P61073 whole entry) above, with W195A counted along it

As usually defined, the IC50 is the concentration at which inhibition is half-maximal. `c1ccc(CNCc2ccc(CNCc3ccccn3)cc2)nc1`: the IC50 in [1] is over 10000 nM.
In the case of `c1ccc2c(CNCCCNC3CCCCC3)ccc(CNCCCNC3CCCCC3)c2c1`, the IC50 in assay [1] was 40.8 nM.
In [1], `O=[N+]([O-])c1cc(CNCCCNC2CCCCC2)cc(CNCCCNC2CCCCC2)c1` displayed an IC50 of 147 nM.
`c1cc(CNC2CCCCC2)ccc1CNC1CCCCC1`: in assay [1], the IC50 is over 10000 nM.
`c1c(CNCCCNC2CCCCC2)cc(CNCCCNC2CCCCC2)cc1CNCCCNC1CCCCC1` showed an IC50 in assay [1] of 312 nM.
`CN(C)c1cc(CNCCCNC2CCCCC2)ccc1CNCCCNC1CCCCC1` yielded an IC50 in assay [1] of 48 nM.
As for `c1cc(CNCCCNC2CCCCC2)ccc1CNCCCNC1CCCCC1`, the Activity was 60% in assay [2]; 10% in assay [3]; “Not toxic” in the assay with CEM-GFP; 10% in assay [6]; 40% in assay [8]; 30% in assay [9]. Also, the result in assay [4], in assay [5] and in assay [10] was inactive. Besides, the IC50 was 119 nM in assay [7], 1500 nM in assay [11] and 19.8 nM in assay [1].
As to `O=[N+]([O-])c1cc(CNCCCNC2CCCCC2)ccc1CNCCCNC1CCCCC1`, the IC50 in assay [1] was found to be 354 nM.
Still for that read-out and setting: the same measure for `c1cc(CNCCCNC2CCCCC2)ncc1CNCCCNC1CCCCC1`: 194 nM; for `c1cc(CNCCCNC2CCCCC2)nc(CNCCCNC2CCCCC2)c1`: 122 nM.
For the compound `O=C(NCCCNC1CCCCC1)c1ccc(C(=O)NCCCNC2CCCCC2)cc1`, the half-inhibitory concentration (IC50) in assay [1] is 1700 nM.
The same measure, in the same setting: in the case of `c1cc(CNCCCNC2CCCCC2)cc(CNCCCNC2CCCCC2)c1` it was 155 nM; in that of `Nc1cc(CNCCCNC2CCCCC2)ccc1CNCCCNC1CCCCC1`, 68.9 nM.
On the same count and under the same terms, in the case of `CNc1cc(CNCCCNC2CCCCC2)cc(CNCCCNC2CCCCC2)c1` it was 67.6 nM; in that of `c1cc(-c2ccc(CNCCCNC3CCCCC3)cc2)ccc1CNCCCNC1CCCCC1`, 67.5 nM.
Same read-out and setting: in the case of `CN(C)c1cc(CNCCCNC2CCCCC2)cc(CNCCCNC2CCCCC2)c1` it was 119 nM; in that of `Nc1cc(CNCCCNC2CCCCC2)cc(CNCCCNC2CCCCC2)c1`, 81.2 nM; in that of `O=C(NCCCNC1CCCCC1)c1ccc(CNCCCNC2CCCCC2)cc1`, 699 nM.
